Measurements reported in publication PMC9414302, “UPLC-ESI-QTRAP-MS/MS Analysis to Quantify Bioactive Compounds in Fennel (Foeniculum vulgare Mill.) Waste with Potential Anti-Inflammatory Activity” (Metabolites, 2022).
Like-named read-outs stand apart in the source and are kept apart here.

Assays:
[1] = target: T1, COX-1 (Ovis aries, UniProt P05979); experiment: COX inhibitor screening fluorometric assay (COX-1); type: biochemical
T1 construct: purchased Cayman Chemicals 700100
T1 sequence (P05979 25-600): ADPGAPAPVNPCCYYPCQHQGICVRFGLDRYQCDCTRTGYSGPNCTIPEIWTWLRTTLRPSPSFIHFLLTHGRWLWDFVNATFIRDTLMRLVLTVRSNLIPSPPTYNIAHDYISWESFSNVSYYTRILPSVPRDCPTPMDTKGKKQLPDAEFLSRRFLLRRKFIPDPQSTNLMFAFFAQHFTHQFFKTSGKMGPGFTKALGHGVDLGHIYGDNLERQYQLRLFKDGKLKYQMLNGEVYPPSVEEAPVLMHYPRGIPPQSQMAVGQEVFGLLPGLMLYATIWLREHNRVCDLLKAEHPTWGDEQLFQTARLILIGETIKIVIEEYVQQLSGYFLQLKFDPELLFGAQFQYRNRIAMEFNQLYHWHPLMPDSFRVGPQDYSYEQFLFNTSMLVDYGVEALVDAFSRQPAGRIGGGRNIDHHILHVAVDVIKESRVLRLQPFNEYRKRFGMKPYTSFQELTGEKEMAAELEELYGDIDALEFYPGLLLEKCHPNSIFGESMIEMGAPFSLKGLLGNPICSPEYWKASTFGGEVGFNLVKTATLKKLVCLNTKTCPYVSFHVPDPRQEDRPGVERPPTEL
Method: (§1) Anti-inflammatory activity was evaluated determining the capacity of some major metabolites of F. vulgare to inhibit the cyclooxygenase activity (COX). […] The assay uses the peroxidase component of COXs. The reaction between PGG2 and ADHP creates resorufin, a highly fluorescent compound. […] The inhibition of COXs is directly proportional to the reduction of resorufin fluorescence.
(§2) The analyses were made in triplicate and the results are expressed as the mean of the IC50 (µM) ± the standard deviation.

[2] = target: T2, COX-2 (Homo sapiens, UniProt P35354); experiment: COX inhibitor screening fluorometric assay (COX-2); type: biochemical
T2 construct: purchased Cayman Chemicals 700100
T2 sequence (P35354 18-604): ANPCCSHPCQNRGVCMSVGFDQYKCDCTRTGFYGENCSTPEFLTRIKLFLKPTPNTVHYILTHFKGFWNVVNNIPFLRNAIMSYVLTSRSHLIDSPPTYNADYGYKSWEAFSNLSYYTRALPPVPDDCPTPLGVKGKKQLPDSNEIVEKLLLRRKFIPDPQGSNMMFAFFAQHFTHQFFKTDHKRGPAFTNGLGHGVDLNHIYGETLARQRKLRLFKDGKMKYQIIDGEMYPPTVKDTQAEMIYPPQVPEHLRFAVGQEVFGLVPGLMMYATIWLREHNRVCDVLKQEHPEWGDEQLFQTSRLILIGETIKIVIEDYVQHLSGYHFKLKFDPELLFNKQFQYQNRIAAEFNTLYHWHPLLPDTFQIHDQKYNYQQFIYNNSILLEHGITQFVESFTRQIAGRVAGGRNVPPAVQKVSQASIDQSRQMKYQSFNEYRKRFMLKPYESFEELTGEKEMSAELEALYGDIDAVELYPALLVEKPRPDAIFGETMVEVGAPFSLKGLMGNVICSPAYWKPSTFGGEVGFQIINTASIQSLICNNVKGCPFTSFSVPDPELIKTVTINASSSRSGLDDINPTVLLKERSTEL
Method: as §1, §2

[3] = fluorometric assay (resorufin, ex 535 nm / em 590 nm), mean of three determinations ± SD, metabolites tested at 25, 50, 100 and 150 µM, SC-560 at 2, 4, 8 and 10 nM

Row | Structure (SMILES) | IC50 [1] [µM] | IC50 [2] [µM] | IC50 [1, 3] [µM]
1 | O=C(/C=C/c1ccc(O)c(O)c1)OC1C(O)CC(OC(=O)/C=C/c2ccc(O)c(O)c2)(C(=O)O)CC1O (stereo not drawn) [Dicaffeoylquinic acid, dicaffeoylquinic acid] | 85.6 ± 10.9 | 14.8 ± 2.39 | 
2 | COc1cc(-c2oc3cc(O)cc(O)c3c(=O)c2OC2OC(C(=O)O)C(O)C(O)C2O)ccc1O (stereo not drawn) [Isorhamnetin glucuronide, isorhamnetin glucuronide] |  |  | 94.7 ± 1.22
3 | O=C(O)C1OC(Oc2c(-c3ccc(O)cc3)oc3cc(O)cc(O)c3c2=O)C(O)C(O)C1O (stereo not drawn) [Kaempferol glucuronide, kaempferol glucuronide] |  |  | 228 ± 16.8
4 | O=c1c(O[C@@H]2O[C@H](CO)[C@@H](O)[C@H](O)[C@H]2O)c(-c2ccc(O)c(O)c2)oc2cc(O)cc(O)c12 [Quercetin glucoside, quercetin glucoside] | 103 ± 8.66 |  | 
5 | O=C(O)[C@H]1O[C@@H](Oc2c(-c3ccc(O)c(O)c3)oc3cc(O)cc(O)c3c2=O)[C@H](O)[C@@H](O)[C@@H]1O [Quercetin glucuronide, quercetin glucuronide] |  |  | 571 ± 40
